Experimental data from patent publication US20260034075A1, “CHOLINE CARBOXYLIC ACID BASED IONIC LIQUIDS AS ANTIMICROBIAL AGENTS” (University of Mississippi, priority 2022, published 2026).

tested on: E. coli [BL21(DE3)]; assay: Minimal Bactericidal Concentration (MBC) measurements, E. coli; type: cell-based; conditions: not given
Method: Bacterial Cell Culturing. Expression cells from frozen stock were streaked onto a kanamycin-selected lysogeny broth (LBKan) agar plate using a sterile loop and incubated overnight at 37° C. One colony was then taken from the plate the next day to inoculate 50 mL of sterile LBKan broth and shaken at 37° C. until reaching a growth concentration of 4×10^8 CFU/mL. This protocol was used for bacterial cell culture preparation in all of the experiments described below.
Minimal Bactericidal Concentration (MBC) Measurements. E. coli cells were cultured as described above and aliquoted into sterile tubes. 1%, 10%, and 100% (w/v) solutions of IL in sterile water (correcting for water percentage of the IL) were prepared and sonicated for 15 minutes at 40° C. before addition to the liquid culture. IL solutions were then added to E. coli at varying percentages (v/v), allowing calculation of the actual concentration of IL that was added to the culture. 100 μL of each solution was then spread onto an LBKan agar plate and incubated overnight at 37° C. […] Each IL solution was tested in triplicate.

| Compound | E. coli MBC / killing efficacy concentration [mM] |
| --- | --- |
| CCCCCCCCCCCC(=O)[O-].C[N+](C)(C)CCO [CADDA 1:1, Choline Dodecanoate 1:1] | 17.1 |

same assay, conditions: Table 1; lowest IL concentration with no growth on LBKan agar plate, triplicate

| Compound | E. coli MBC [mM] |
| --- | --- |
| CCCCCC/C=C/C(=O)O [CA2NE 1:1, Choline 2-Nonenoate 1:1] | 56.40 |
| Choline 3-Butenoate 1:2 [CA3BE 1:2] | 153.33 |
| Choline Ethoxyacetate 1:2 [CAEA 1:2] | 89.20 |
| CC=CCC(=O)[O-].C[N+](C)(C)CCO [CA3PE 1:1, Choline 3-Pentenoate 1:1] | 1152.23 |
| CCCC/C=C/CC(=O)O [CA3OE 1:1, Choline 3-Octenoate 1:1] | 92.00 |
| Choline Malonate 1:2 [CAMA 1:2] | 21.60 |
| CCCCCCCC=CC(=O)[O-].C[N+](C)(C)CCO [CA2DE 1:1, Choline 2-Decenoate 1:1] | 3.67 |
| CC/C=C(\C)C(=O)O [CAGAS 1:2, Choline trans-2-Methyl-2-Pentenoate 1:2] | 44.60 |
| Choline Hexanoate 1:2 [CAHA 1:2] | 28.23 |
| C=CCC(=O)[O-].C[N+](C)(C)CCO [CA3BE 1:1, Choline 3-Butenoate 1:1] | 1350.93 |
| C[N+](C)(C)CCO.O=C(O)CC(O)C(=O)[O-] (stereo not shown) [CAMI 1:1, Choline Malate 1:1] | 1126.13 |
| CCCC(=O)[O-].C[N+](C)(C)CCO [CABA 1:1, Choline Butanoate 1:1] | 1234.35 |
| CCCCC=CC(=O)[O-].C[N+](C)(C)CCO [CA2HPE 1:1, Choline 2-Heptenoate 1:1] | 346.93 |
| Choline Fumarate 1:2 [CAFU 1:2] | 10.05 |
| Choline 2-Decenoate 1:2 [CA2DE 1:2] | 0.77 |
| Choline 3-Mercaptopropionate 1:2 [CA3MP 1:2] | 101.07 |
| CC(=O)OCC(=O)O [CAAA 1:1, Choline Acetoxyacetate 1:1] | 73.40 |
| Choline 3-Hexenoate 1:2 [CA3HE 1:2] | 52.00 |

| Compound | E. coli MBC [mM] |
| --- | --- |
| Choline Heptanoate 1:2 [CAHPA 1:2] | 16.33 |
| CC/C=C(\C)C(=O)O [CAGAS 1:1, Choline trans-2-Methyl-2-Pentenoate 1:1] | 530.73 |
| CCCCCC/C=C/C(=O)O [CA2NE 1:2, Choline 2-Nonenoate 1:2] | 1.22 |
| CC=CC(=O)[O-].C[N+](C)(C)CCO [CA2BE 1:1, Choline 2-Butenoate 1:1] | 1330.40 |
| Choline 2-Octenoate 1:2 [CA2OE 1:2] | 5.18 |
| Choline Maleate 1:2 [CAME 1:2] | 20.00 |
| CCCCCCC(=O)[O-].C[N+](C)(C)CCO [CAHPA 1:1, Choline Heptanoate 1:1] | 101.80 |
| Choline Malate 1:2 [CAMI 1:2] | 91.80 |
| CCCC=CC(=O)[O-].C[N+](C)(C)CCO [CA2HE 1:1, Choline 2-Hexenoate 1:1] | 507.63 |
| Choline 2-Butenoate 1:2 [CA2BE 1:2] | 158.97 |
| Choline Nonanoate 1:2 [CANA 1:2] | 1.01 |
| CCCCCCCCCCC(=O)[O-].C[N+](C)(C)CCO [CAUA 1:1, Choline Undecanoate 1:1] | 15.50 |
| Choline 2-Pentenoate 1:2 [CA2PE 1:2] | 120.10 |
| Choline 3-Octenoate 1:2 [CA3OE 1:2] | 2.16 |
| C[N+](C)(C)CCO.O=C([O-])CCS [CA3MP 1:1, Choline 3-Mercaptopropionate 1:1] | 1378.42 |
| CCCCCCC=CCC(=O)[O-].C[N+](C)(C)CCO [CA3DE 1:1, Choline 3-Decenoate 1:1] | 3.10 |
| CCCCCCCCCCCC(=O)[O-].C[N+](C)(C)CCO [CADDA 1:1, Choline Dodecanoate 1:1] | 17.10 |
| C[N+](C)(C)CCO.O=C([O-])C=CC(=O)O [CAME 1:1, Choline Maleate 1:1] | 38.37 |
